Laboratory results as given in the supplement of paper PMC10307832.

Key:
Assay in all cases: relative viability (nuclei count vs DMSO), 5 days (fraction); higher = more cells survive
[1] = tested on: BEN
Procedure, shortened: (§1)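 For relative viability, nuclei counts in treated wells were divided by those in vehicle wells. Lung cancer cell lines had been pin-tool dosed in 1536-well plates the day after seeding and cultured for 5 days, then fixed and stained in one step (final 0.05% Triton X-100, 1% formaldehyde, 1 ug/ml Hoechst) and imaged at 4×. Doses were one drug alone or a fixed anchor-drug dose plus five library-drug doses (not always all listed) in √10 steps, and values are duplicate-plate medians.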

[2] = tested on: CAL-12T
Procedure, shortened: as §1

[3] = tested on: COR-L23
Procedure, shortened: as §1

[4] = tested on: HCC-44
Procedure, shortened: as §1

[5] = tested on: LU99A
Procedure, shortened: as §1

[6] = tested on: LXF-289
Procedure, shortened: as §1

[7] = tested on: NCI-H1355
Procedure, shortened: as §1

[8] = tested on: NCI-H1437
Procedure, shortened: as §1

[9] = tested on: NCI-H1650
Procedure, shortened: as §1

[10] = tested on: NCI-H1651
Procedure, shortened: as §1

[11] = tested on: NCI-H1666
Procedure, shortened: as §1

[12] = tested on: NCI-H1755
Procedure, shortened: as §1

[13] = tested on: NCI-H1792
Procedure, shortened: as §1

[14] = tested on: NCI-H1993
Procedure, shortened: as §1

[15] = tested on: NCI-H2085
Procedure, shortened: as §1

[16] = tested on: NCI-H2087
Procedure, shortened: as §1

[17] = tested on: NCI-H2170
Procedure, shortened: as §1

[18] = tested on: NCI-H460
Procedure, shortened: as §1

[19] = tested on: NCI-H520
Procedure, shortened: as §1

[20] = tested on: PC-14
Procedure, shortened: as §1

[21] = tested on: SK-MES-1
Procedure, shortened: as §1

Cc1csc(=NC2CCCCC2)n1/N=C/c1ccc(O)c(O)c1O [MIM1] + CC1(C)CCC(c2ccc(Cl)cc2)=C(CN2CCN(c3ccc(C(=O)NS(=O)(=O)c4ccc(N[C@H](CCN5CCOCC5)CSc5ccccc5)c(S(=O)(=O)C(F)(F)F)c4)cc3)CC2)C1 [Navitoclax] (partner 0.5 µM) showed a relative viability ([1]; first compound 0.2 µM) of 0.0709, a relative viability ([1]; first compound 0.6325 µM) of 0.0746 and a relative viability ([1]; first compound 2 µM) of 0.0631. It also gave a relative viability ([1]; first compound 6.325 µM) of 0.0911, a relative viability ([1]; first compound 20 µM) of 0.0543 and a relative viability ([2]; first compound 0.2 µM) of 1.13. It also gave a relative viability ([2]; first compound 0.6325 µM) of 1.36, a relative viability ([2]; first compound 2 µM) of 1.15 and a relative viability ([2]; first compound 6.325 µM) of 0.731. The relative viability ([2]; first compound 20 µM) was 0.945, the relative viability ([3]; first compound 0.2 µM) was 0.966 and the relative viability ([3]; first compound 0.6325 µM) was 1.08. It also gave a relative viability ([3]; first compound 2 µM) of 0.997, a relative viability ([3]; first compound 6.325 µM) of 0.774 and a relative viability ([3]; first compound 20 µM) of 0.515. The relative viability ([4]; first compound 0.2 µM) was 0.93, the relative viability ([4]; first compound 0.6325 µM) was 1.01 and the relative viability ([4]; first compound 2 µM) was 0.74. For the same molecule, the relative viability ([4]; first compound 6.325 µM) was 0.612, the relative viability ([4]; first compound 20 µM) was 0.277 and the relative viability ([5]; first compound 0.2 µM) was 0.931. For the same molecule, the relative viability ([5]; first compound 0.6325 µM) was 0.817, the relative viability ([5]; first compound 2 µM) was 0.781 and the relative viability ([5]; first compound 6.325 µM) was 0.836. The relative viability ([5]; first compound 20 µM) was 0.18, the relative viability ([6]; first compound 0.2 µM) was 0.921 and the relative viability ([6]; first compound 0.6325 µM) was 0.939. It also gave a relative viability ([6]; first compound 2 µM) of 0.921, a relative viability ([6]; first compound 6.325 µM) of 0.768 and a relative viability ([6]; first compound 20 µM) of 0.487. The relative viability ([7]; first compound 0.2 µM) was 0.977, the relative viability ([7]; first compound 0.6325 µM) was 1.03 and the relative viability ([7]; first compound 2 µM) was 1.07. The relative viability ([7]; first compound 6.325 µM) was 0.793, the relative viability ([7]; first compound 20 µM) was 0.95 and the relative viability ([8]; first compound 0.2 µM) was 0.989. It also gave a relative viability ([8]; first compound 0.6325 µM) of 1.1, a relative viability ([8]; first compound 2 µM) of 0.998 and a relative viability ([8]; first compound 6.325 µM) of 0.654. For the same molecule, the relative viability ([8]; first compound 20 µM) was 0.27, the relative viability ([9]; first compound 0.2 µM) was 1.13 and the relative viability ([9]; first compound 0.6325 µM) was 1.18. It also gave a relative viability ([9]; first compound 2 µM) of 0.693, a relative viability ([9]; first compound 6.325 µM) of 0.452 and a relative viability ([9]; first compound 20 µM) of 0.202. It also gave a relative viability ([10]; first compound 0.2 µM) of 1.09, a relative viability ([10]; first compound 0.6325 µM) of 1.1 and a relative viability ([10]; first compound 2 µM) of 1.03. It also gave a relative viability ([10]; first compound 6.325 µM) of 0.875, a relative viability ([10]; first compound 20 µM) of 0.869 and a relative viability ([11]; first compound 0.2 µM) of 1. It also gave a relative viability ([11]; first compound 0.6325 µM) of 1.15, a relative viability ([11]; first compound 2 µM) of 1.11 and a relative viability ([11]; first compound 6.325 µM) of 0.727. The relative viability ([11]; first compound 20 µM) was 0.667, the relative viability ([12]; first compound 0.2 µM) was 1.01 and the relative viability ([12]; first compound 0.6325 µM) was 0.995. For the same molecule, the relative viability ([12]; first compound 2 µM) was 1.03, the relative viability ([12]; first compound 6.325 µM) was 0.703 and the relative viability ([12]; first compound 20 µM) was 0.557. For the same molecule, the relative viability ([13]; first compound 0.2 µM) was 0.59, the relative viability ([13]; first compound 0.6325 µM) was 0.484 and the relative viability ([13]; first compound 2 µM) was 0.559. It also gave a relative viability ([13]; first compound 6.325 µM) of 0.501, a relative viability ([13]; first compound 20 µM) of 0.245 and a relative viability ([14]; first compound 0.2 µM) of 0.911. It also gave a relative viability ([14]; first compound 0.6325 µM) of 0.951, a relative viability ([14]; first compound 2 µM) of 0.854 and a relative viability ([14]; first compound 6.325 µM) of 0.822. For the same molecule, the relative viability ([14]; first compound 20 µM) was 0.425, the relative viability ([15]; first compound 0.2 µM) was 1.17 and the relative viability ([15]; first compound 0.6325 µM) was 1.08. It also gave a relative viability ([15]; first compound 2 µM) of 1.12, a relative viability ([15]; first compound 6.325 µM) of 1.02 and a relative viability ([15]; first compound 20 µM) of 1.01. The relative viability ([16]; first compound 0.2 µM) was 1.05, the relative viability ([16]; first compound 0.6325 µM) was 0.921 and the relative viability ([16]; first compound 2 µM) was 1.03. For the same molecule, the relative viability ([16]; first compound 6.325 µM) was 0.928, the relative viability ([16]; first compound 20 µM) was 0.382 and the relative viability ([17]; first compound 0.2 µM) was 0.571. For the same molecule, the relative viability ([17]; first compound 0.6325 µM) was 0.636, the relative viability ([17]; first compound 2 µM) was 0.549 and the relative viability ([17]; first compound 6.325 µM) was 0.468. The relative viability ([17]; first compound 20 µM) was 0.298, the relative viability ([18]; first compound 0.2 µM) was 1.16 and the relative viability ([18]; first compound 0.6325 µM) was 1.14. For the same molecule, the relative viability ([18]; first compound 2 µM) was 0.772, the relative viability ([18]; first compound 6.325 µM) was 0.416 and the relative viability ([18]; first compound 20 µM) was 0.0332. For the same molecule, the relative viability ([19]; first compound 0.2 µM) was 1.08, the relative viability ([19]; first compound 0.6325 µM) was 1.06 and the relative viability ([19]; first compound 2 µM) was 1.06. It also gave a relative viability ([19]; first compound 6.325 µM) of 0.832, a relative viability ([19]; first compound 20 µM) of 0.517 and a relative viability ([20]; first compound 0.2 µM) of 1.02. For the same molecule, the relative viability ([20]; first compound 0.6325 µM) was 1.03, the relative viability ([20]; first compound 2 µM) was 0.988 and the relative viability ([20]; first compound 6.325 µM) was 0.894. It also gave a relative viability ([20]; first compound 20 µM) of 0.133, a relative viability ([21]; first compound 0.2 µM) of 1.29 and a relative viability ([21]; first compound 0.6325 µM) of 1.26. The relative viability ([21]; first compound 2 µM) was 1.28, the relative viability ([21]; first compound 6.325 µM) was 0.939 and the relative viability ([21]; first compound 20 µM) was 0.795.
